Experimental data from US7202287B2, “Method and compositions” (Arch Chemicals, Inc., priority 2000, dated 2007).

How the values were obtained:
[1] = system: Pseudomonas aeruginosa NCIB 10421; test: Minimum inhibitory concentration against mono-cultures, microtitre plate doubling dilutions in nutrient broth; assay type: cell-based; conditions: 24 hours at 37° C., visual inspection
Description: Pseudomonas aeruginosa NCIB 10421 Bacteria were grown to stationary phase (18 h) in nutrient broth (approximately 10^9 organisms per ml). A 0.1% (v/v) inoculum was used to seed fresh medium and 100 μl of the inoculum was then added to each well of a microtitre plate, except for the first well which contained 200 μl. Using doubling dilutions, the concentration of the compounds under investigation were varied in each well along the ordinate axis. The presence or absence of growth was recorded by visual inspection after 24 hours incubation at 37° C. […]

[2] = system: Aspergillus Niger IMI 17454; test: Minimum inhibitory concentration against monocultures (fungus); assay type: cell-based; conditions: Example 3, Table 5; biocide alone
Description: Aspergillus Niger IMI 17454 The fungus was maintained on malt agar. The MICs were calculated as described previously in examples 1 and 2.

| Compound | MIC (ppm) against Ps. aeruginosa ([1]; Example 1, Table 1, biocide alone) | MIC (ppm) against Aspergillus Niger [2] | MIC (ppm) against Ps. aeruginosa ([1]; Example 2, Table 3, biocide alone) |
| --- | --- | --- | --- |
| O=c1[nH]sc2ccccc12 [BIT, 1,2-benzisothiazolin-3-one] | 32 ppm | – | – |
| CCCCn1sc2ccccc2c1=O [Butyl BIT, 2n-butyl-1,2-benzisothiazolin-3-one] | – | 8 ppm | 125 ppm |
